Here are results for 53 molecules from patent US9174942B2, “IDO inhibitors” (NewLink Genetics Corporation, priority 2008, dated 2015).

Where a name gives a salt, the structure may show the parent alone.

The IC50 is the midpoint of a concentration-inhibition curve.

For the assay, the target named is T1, purified human IDO protein (Homo sapiens, UniProt P14902, E119G/P110S).
T1 construct: 6-Histidine tag (C); made in house; host or cells: E. coli M15(pREP4) transformed with pQE70-hIDO
The assay is described as follows: Enzymatic IDO assay (kynurenine formation, absorbance at 480 nm). The assay is classed as biochemical. The conditions noted are these: recombinant human IDO, 200 μM L-tryptophan, pH 6.5; reported in ranges. The procedure:
The inhibitors were initially diluted in DMSO at 100 mM and were diluted in potassium phosphate 50 mM, added to the reaction mixture at final concentrations raging from 1 mM to 5 nM and preincubated with the enzyme for 5 min at 25° C. The reaction was started by addition of L-tryptophan to 200 μM and incubated 15 min at 37° C. The reaction was stopped by addition of 0.5 vol of 30% trichloroacetic acid and incubated 30 min at 60° C. to hydrolyze N-formylkynurenine to kynurenine. The reaction was centrifuged at 3400 g for 5 min to remove precipitated protein and the supernatant was reacted with 2% (w/v) of p-dimethylaminobenzaldehyde in acetic acid. The reaction was incubated 10 min at 25° C. and read at 480 nm in a spectrophotometer. […] Nonlinear regressions and determination of the IC50 values were performed using the GraphPad Prism 4 software.

T1 sequence (P14902 whole entry P110S/E119G): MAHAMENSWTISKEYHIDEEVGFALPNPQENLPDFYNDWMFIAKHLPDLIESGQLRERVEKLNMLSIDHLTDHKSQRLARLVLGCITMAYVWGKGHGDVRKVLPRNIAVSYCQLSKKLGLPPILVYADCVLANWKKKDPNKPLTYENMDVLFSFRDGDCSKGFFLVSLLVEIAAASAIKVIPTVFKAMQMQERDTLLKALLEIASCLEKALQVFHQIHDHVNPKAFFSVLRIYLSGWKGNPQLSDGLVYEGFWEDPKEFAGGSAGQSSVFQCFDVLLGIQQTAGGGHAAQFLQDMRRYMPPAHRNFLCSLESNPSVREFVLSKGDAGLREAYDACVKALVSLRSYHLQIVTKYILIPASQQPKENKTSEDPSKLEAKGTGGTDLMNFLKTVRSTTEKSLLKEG

As to `CC(C)(CCNCc1ccccc1)CCOc1ccccc1-c1c[nH]cn1` [Compound 166, 5-(2-(1H-imidazol-4-yl)phenoxy)-N-benzyl-3,3-dimethylpentan-1-amine], the IC50 is under 20 µM. In the case of `Oc1ccccc1Cn1cncc1-c1ccccc1` [Compound 65, 2-((5-phenyl-1H-imidazol-1-yl)methyl)phenol] it was 20 to 100 µM. In the case of `CNC(=O)CCC(C)(C)CCOc1ccccc1-c1c[nH]cn1` [Compound 38, 6-(2-(1H-imidazol-4-yl)phenoxy)-N,4,4-trimethylhexanamide] it was under 20 µM; in that of `CC(=O)NCc1ccc(COc2ccccc2-c2c[nH]cn2)cc1` [Compound 154, N-(4-((2-(1H-imidazol-4-yl)phenoxy)methyl)benzyl) acetamide], 20 to 100 µM.

For `Oc1ccc(CCOc2ccccc2-c2c[nH]cn2)cc1` [Compound 158, 4-(2-(2-(1H-imidazol-4-yl)phenoxy)ethyl)phenol], the IC50 was under 20 µM. The result for `CC(=O)N1CCC(CCOc2ccccc2-c2c[nH]cn2)CC1` [Compound 151, 1-(4-(2-(2-(1H-imidazol-4-yl)phenoxy)ethyl)piperidin-1-yl)ethanone] reads under 20 µM; that for `NS(=O)(=O)c1ccc(COc2ccccc2-c2c[nH]cn2)cc1` [Compound 46, 4-((2-(1H-imidazol-4-yl)phenoxy)methyl) benzenesulfonamide], under 20 µM; that for `c1ccc(CCCn2cncc2-c2ccccc2)cc1` [Compound 64, 5-phenyl-1-(3-phenylpropyl)-1H-imidazole], 20 to 100 µM.

On to `COc1cccc(O)c1-c1c[nH]cn1` [Compound 41, 2-(1H-imidazol-4-yl)-3-methoxyphenol], for which the 50% inhibitory concentration (IC50) was under 20 µM.

On to `CC(=O)NCCCCn1cncc1-c1ccccc1` [Compound 127, N-(4-(5-phenyl-1H-imidazol-1-yl)butyl)acetamide], for which the IC50 was in the range of 100 to 500 µM. As to `Clc1ccccc1Cn1cncc1-c1ccccc1` [Compound 52, 1-(2-chlorobenzyl)-5-phenyl-1H-imidazole], the IC50 was under 20 µM. With `CCOC(=O)CCCn1cncc1-c1ccccc1` [Compound 121, ethyl 4-(5-phenyl-1H-imidazol-1-yl)butanoate], the concentration for half-maximal inhibition (IC50) lay in the range of 100 to 500 µM.

Regarding `NC(=O)C1CCC(=CCOc2ccccc2-c2c[nH]cn2)CC1` (centres unmarked) [Compound 168, 4-(2-(2-(1H-imidazol-4-yl)phenoxy)ethylidene)cyclohexanecarboxamide], the 50% inhibitory concentration (IC50) was under 20 µM. In the case of `Oc1ccc(O)c(-c2c[nH]cn2)c1` [Compound 21, 2-(1H-imidazol-4-yl)benzene-1,4-diol] it was under 20 µM.

In the case of `N#Cc1cccc(-c2c[nH]cn2)c1` [Compound 94, 3-(1H-imidazol-5-yl)benzonitrile], the concentration for half-maximal inhibition (IC50) lay within 20 to 100 µM. In the case of `Oc1ccc(Cn2cncc2-c2ccccc2)cc1` [Compound 125, 4-((5-phenyl-1H-imidazol-1-yl)methyl)phenol] it was 100 to 500 µM; in that of `O=[N+]([O-])c1cccc(Cn2cncc2-c2ccccc2)c1` [Compound 95, 1-(3-nitrobenzyl)-5-phenyl-1H-imidazole], 20 to 100 µM. As for `CC(=O)NCCC(C)(C)CCOc1ccccc1-c1c[nH]cn1` [Compound 53], the IC50 is under 20 µM. In the case of `Clc1ccc(COc2ccccc2-c2cnc[nH]2)cc1` [Compound 14, 5-(2-(4-chlorobenzyloxy)phenyl)-1H-imidazole] it was under 20 µM.

Regarding `Sc1ccccc1-c1c[nH]cn1` [Compound 23, 2-(1H-imidazol-5-yl) benzenethiol], the IC50 is under 20 µM. Regarding `Cc1ccc(COc2ccccc2-c2c[nH]cn2)cc1` [Compound 66, 4-(2-(4-methylbenzyloxy)phenyl)-1H-imidazole], the IC50 fell in the range of 20 to 100 µM. The result for `Clc1ccc(CNc2ccccc2-c2c[nH]cn2)cc1` [Compound 62, N-(4-chlorobenzyl)-2-(1H-imidazol-4-yl)aniline] reads 20 to 100 µM; that for `Clc1ccccc1COc1ccccc1-c1c[nH]cn1` [Compound 75, 4-(2-(2-chlorobenzyloxy)phenyl)-1H-imidazole], 20 to 100 µM; that for `Cc1ccccc1COc1ccccc1-c1c[nH]cn1` [Compound 37, 4-(2-(2-methylbenzyloxy)phenyl)-1H-imidazole], under 20 µM. The result for `Clc1ccc(Cn2cncc2-c2ccccc2)cc1` [Compound 54, 1-(4-chlorobenzyl)-5-phenyl-1H-imidazole] reads 20 to 100 µM; that for `CC(C)(C)COc1ccccc1-c1c[nH]cn1` [Compound 31, 4-(2-(neopentyloxy)phenyl)-1H-imidazole], under 20 µM. Consider `CC(C)(C)OC(=O)NCCCCn1cncc1-c1ccccc1` [Compound 86, tert-butyl 4-(5-phenyl-1H-imidazol-1-yl)butylcarbamate], for which the IC50 lay within 20 to 100 µM.

Regarding `Clc1ccc(COc2c(Br)cccc2-c2c[nH]cn2)cc1` [Compound 60, 4-(3-bromo-2-(4-chlorobenzyloxy)phenyl)-1H-imidazole], the IC50 lay in the range of 20 to 100 µM. `Clc1ccc(COc2cc(Cl)ccc2-c2c[nH]cn2)cc1` [Compound 147, 4-(4-chloro-2-(4-chlorobenzyloxy)phenyl)-1H-imidazole]: the IC50 is 20 to 100 µM. For the molecule `O=C(O)c1ccc(-c2c[nH]cn2)cc1` [Compound 119, 4-(1H-imidazol-4-yl)benzoic acid], the concentration for half-maximal inhibition (IC50) was in the range of 100 to 500 µM.

`c1cnc(NCCCOc2ccccc2-c2cnc[nH]2)nc1` [Compound 98, N-(3-(2-(1H-imidazol-5-yl)phenoxy)propyl)pyrimidin-2-amine]: the IC50 fell in the range of 100 to 500 µM. The result for `c1ccc(CCc2nc[nH]c2-c2ccccc2)cc1` [Compound 126, 4-phenethyl-5-phenyl-1H-imidazole] reads 100 to 500 µM; that for `Oc1cccc(OCc2ccc(Cl)cc2)c1-c1cnc[nH]1` [Compound 73, 3-(4-chlorobenzyloxy)-2-(1H-imidazol-5-yl)phenol], 20 to 100 µM. The result for `Cc1ccc(Cn2cncc2-c2ccccc2)cc1` [Compound 72, 1-(4-methylbenzyl)-5-phenyl-1H-imidazole] reads 20 to 100 µM. Consider `CC(C)(C)OC(=O)N1CCC(CCOc2ccccc2-c2c[nH]cn2)CC1` [Compound 150, tert-butyl 4-(2-(2-(1H-imidazol-4-yl)phenoxy)ethyl) piperidine-1-carboxylate], for which the IC50 lay within 20 to 100 µM. The result for `Clc1ccc(COc2ccc(Br)cc2-c2c[nH]cn2)cc1` [Compound 49, 4-(5-bromo-2-(4-chlorobenzyloxy)phenyl)-1H-imidazole] reads under 20 µM; that for `OCc1ccccc1-c1c[nH]cn1` [Compound 78, (2-(1H-imidazol-4-yl)phenyl)methanol], 20 to 100 µM; that for `Cc1cccc(Cn2cncc2-c2ccccc2)c1` [Compound 90, 1-(3-methylbenzyl)-5-phenyl-1H-imidazole], 20 to 100 µM. In the case of `CC(C)(CCOc1ccccc1-c1c[nH]cn1)CCC(=O)O` [Compound 83, 6-(2-(1H-imidazol-4-yl)phenoxy)-4,4-dimethylhexanoic acid hydrochloride] it was 20 to 100 µM; in that of `Oc1ccccc1-c1cc[nH]n1` [Compound 43, 2-(1H-pyrazol-3-yl)phenol], under 20 µM. In the case of `CCOC(=O)c1ccccc1-c1c[nH]cn1` [Compound 80, ethyl 2-(1H-imidazol-4-yl)benzoate] it was 20 to 100 µM. Turning to `O=CNCCOc1ccccc1-c1c[nH]cn1` [Compound 107, N-(2-(2-(1H-imidazol-4-yl)phenoxy)ethyl)formamide], the 50% inhibitory concentration (IC50) fell in the range of 100 to 500 µM. In the case of `COc1ccccc1-c1cncn1CCC(C)(C)C` [Compound 89, 1-(3,3-dimethylbutyl)-5-(2-methoxyphenyl)-1H-imidazole] it was 20 to 100 µM; in that of `N#Cc1ccc(Cn2cncc2-c2ccccc2)cc1` [Compound 97, 4-((5-phenyl-1H-imidazol-1-yl)methyl)benzonitrile], 20 to 100 µM; in that of `NCCn1cncc1-c1ccccc1` [Compound 118, 2-(5-phenyl-1H-imidazol-1-yl)ethanamine], 100 to 500 µM. The result for `N#CC1CCC(=CCOc2ccccc2-c2c[nH]cn2)CC1` (centres unmarked) [Compound 160, 4-(2-(2-(1H-imidazol-4-yl)phenoxy)ethylidene)cyclohexanecarbonitrile] reads under 20 µM.

Regarding `Clc1cccc(CCOc2ccccc2-c2c[nH]cn2)c1` [Compound 33, 4-(2-(3-chlorophenethoxy)phenyl)-1H-imidazole], the IC50 is under 20 µM. With `CC(=O)N1CCCC(COc2ccccc2-c2c[nH]cn2)C1` (centres unmarked) [Compound 117, 1-(3-((2-(1H-imidazol-4-yl)phenoxy)methyl)piperidin-1-yl)ethanone], the IC50 lay within 100 to 500 µM. The result for `CS(=O)(=O)Nc1ccccc1-c1c[nH]cn1` [Compound 101, N-(2-(1H-imidazol-4-yl)phenyl)methanesulfonamide] reads 100 to 500 µM. The result for `Clc1ccccc1CCOc1ccccc1-c1c[nH]cn1` [Compound 15, 4-(2-(2-chlorophenethoxy)phenyl)-1H-imidazole] reads under 20 µM; that for `CC(C)(C)CCOc1c(Br)cccc1-c1c[nH]cn1` [Compound 26, 4-(3-bromo-2-(3,3-dimethylbutoxy)phenyl)-1H-imidazole], under 20 µM; that for `N#Cc1ccccc1COc1ccccc1-c1c[nH]cn1` [Compound 99, 2-((2-(1H-imidazol-4-yl)phenoxy)methyl)benzonitrile], 100 to 500 µM. In the case of `CC(=O)NC1CCC(=CCOc2ccccc2-c2c[nH]cn2)CC1` (centres unmarked) [Compound 39, N-(4-(2-(2-(1H-imidazol-4-yl)phenoxy)ethylidene)cyclohexyl)acetamide] it was under 20 µM.
